{"source": "the NIST ThermoML archive (doi:10.1016/j.jct.2018.06.026)", "key": {"[1]": {"assay": "wn = mass fraction of the nth substance listed", "settings": "100 kPa, Liquid, Vibrating tube method"}, "[2]": {"assay": "refractive index (Na D-line) (dimensionless); wn = mass fraction of the nth substance listed", "settings": "100 kPa, Liquid, Standard Abbe refractometry"}}, "note": "± gives the expanded uncertainty stated by the source."}
{"smiles": "[Cl-].[Na+]", "note": "[sodium chloride] + O", "values": [{"measurement": "mass density", "setting": "[1]; 293.15 K, w1 = 0.265", "result": "1200.01 ± 10", "unit": "kg/m3"}, {"measurement": "mass density", "setting": "[1]; 313.15 K, w1 = 0.2717", "result": "1181.06 ± 10", "unit": "kg/m3"}, {"measurement": "refractive index", "setting": "[2]; 293.15 K, w1 = 0.265", "result": "1.38027 ± 0.002"}, {"measurement": "refractive index", "setting": "[2]; 313.15 K, w1 = 0.2717", "result": "1.37386 ± 0.002"}]}
